The source of these data is PubChem BioAssay (NCI).

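Each compound was tested at five concentrations against cells in 96-well plates for 48 hours. At the TGI there is no net growth.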

Some test systems named below: TK-10 renal; EKVX NSCLC; RXF 393 renal; HCT-116 colon; BT-549 breast; MALME-3M melanoma; SN12C renal; NCI/ADR-RES ovarian; HOP-62 NSCLC; SF-539 CNS; U251 CNS; A498 renal; OVCAR-8 ovarian; HL-60(TB) leukemia; CCRF-CEM leukemia; OVCAR-4 ovarian; KM12 colon.
Common to all, as to assay: growth of human tumour cells (NCI), 48 h

For `CN(C)C=Nc1cccc2cnccc12`, the TGI with TK-10 renal, in the assay with EKVX NSCLC, in the assay with RXF 393 renal, with HCT-116 colon, in the assay with BT-549 breast and with MALME-3M melanoma was > 100 µM in each case. Further, the TGI in the assay on SN12C renal, with NCI/ADR-RES ovarian, in the assay on HOP-62 NSCLC, with SF-539 CNS, in the assay on U251 CNS and in the assay on A498 renal was > 100 µM in each case. Also, the TGI in the assay with OVCAR-8 ovarian, in the assay on HL-60(TB) leukemia, in the assay with CCRF-CEM leukemia and in the assay on OVCAR-4 ovarian was > 100 µM throughout.
With `CC(C)(C)OC(=O)NC(Cc1cnc[nH]1)C(=O)N1CCCC1C(N)=O` (stereo not drawn), the TGI with TK-10 renal was > 100 µM; in the assay on EKVX NSCLC, > 100 µM; with RXF 393 renal, 92.3 µM; in the assay on HCT-116 colon, > 100 µM; in the assay with BT-549 breast, > 100 µM; with MALME-3M melanoma, > 100 µM. The TGI in the assay with SN12C renal, in the assay with NCI/ADR-RES ovarian, in the assay on HOP-62 NSCLC, in the assay with SF-539 CNS, with U251 CNS and in the assay with A498 renal was > 100 µM each time. In addition, the TGI with OVCAR-8 ovarian, in the assay on KM12 colon, with HL-60(TB) leukemia, in the assay with CCRF-CEM leukemia and in the assay on OVCAR-4 ovarian was > 100 µM each time.
In the case of `CCOC(=O)c1cc(C2CCN(Cc3ccccc3)C2=O)c(C(=O)C(=[N+]=[N-])C(C)=O)[nH]1` (stereo not drawn), the TGI in the assay with EKVX NSCLC, in the assay with RXF 393 renal, in the assay on HCT-116 colon, with BT-549 breast, in the assay with MALME-3M melanoma and with SN12C renal was > 100 µM in each case. The TGI in the assay with NCI/ADR-RES ovarian, in the assay with HOP-62 NSCLC, with SF-539 CNS, in the assay on U251 CNS, in the assay on A498 renal and in the assay on OVCAR-8 ovarian was > 100 µM each time. The TGI in the assay on KM12 colon, with HL-60(TB) leukemia, in the assay with CCRF-CEM leukemia and in the assay with OVCAR-4 ovarian was > 100 µM in each case.
For `CCCN(CCCCN1C(=O)c2ccccc2C1=O)CC1COc2ccccc2O1` (stereo not drawn), the TGI in the assay with TK-10 renal, in the assay on EKVX NSCLC, in the assay with RXF 393 renal, in the assay on HCT-116 colon, in the assay with BT-549 breast and in the assay on MALME-3M melanoma was > 100 µM throughout. The TGI in the assay on SN12C renal, in the assay on NCI/ADR-RES ovarian, in the assay with HOP-62 NSCLC, in the assay with SF-539 CNS, in the assay with U251 CNS and in the assay on A498 renal was > 100 µM in each case. The TGI in the assay with OVCAR-8 ovarian was > 100 µM; with KM12 colon it was > 100 µM; in the assay on HL-60(TB) leukemia, 95.9 µM; with CCRF-CEM leukemia, 88.8 µM; in the assay with OVCAR-4 ovarian it was > 100 µM.
For `O=C1CC(=O)c2c(Cl)sc(Cl)c21`, the TGI was > 100 µM in the assay on TK-10 renal; > 100 µM with EKVX NSCLC; 86.2 µM in the assay on RXF 393 renal; > 100 µM in the assay on HCT-116 colon; > 100 µM in the assay with BT-549 breast; 67.2 µM in the assay on MALME-3M melanoma. Moreover, the TGI with SN12C renal, with NCI/ADR-RES ovarian, in the assay with HOP-62 NSCLC, with SF-539 CNS, in the assay on U251 CNS and in the assay on A498 renal was > 100 µM in each case. Moreover, the TGI in the assay on OVCAR-8 ovarian is > 100 µM; in the assay with KM12 colon it was > 100 µM; with HL-60(TB) leukemia it was 85.6 µM; in the assay on CCRF-CEM leukemia, > 100 µM; in the assay on OVCAR-4 ovarian, 76.3 µM.
On to `c1ccc2c3c([nH]c2c1)C1c2[nH]c4ccccc4c2CCN1CC3`, for which the TGI is 23.2 µM in the assay on TK-10 renal; 20.2 µM in the assay with EKVX NSCLC; 27 µM with RXF 393 renal; 23.3 µM with HCT-116 colon; 29.9 µM in the assay with BT-549 breast; 30 µM with MALME-3M melanoma. In addition, the TGI is 32.6 µM with SN12C renal; 5.47 µM with NCI/ADR-RES ovarian; 27.8 µM in the assay on HOP-62 NSCLC; 31.3 µM with SF-539 CNS; 34.4 µM with A498 renal; 26.9 µM in the assay with OVCAR-8 ovarian. Besides, the TGI was 41.3 µM in the assay with KM12 colon, 66.5 µM with HL-60(TB) leukemia, > 100 µM with CCRF-CEM leukemia and 18.7 µM with OVCAR-4 ovarian.
`Cc1cc2c(cc1C)[n+](=O)c(C(=O)N1CCN(c3ccc([N+](=O)[O-])cc3)CC1)c(C)n2[O-]`: the TGI is 40.4 µM with TK-10 renal; 87.4 µM in the assay on EKVX NSCLC; 41.3 µM in the assay on RXF 393 renal; > 100 µM in the assay on HCT-116 colon; 49.9 µM in the assay with BT-549 breast; > 100 µM with MALME-3M melanoma. Moreover, the TGI is > 100 µM with SN12C renal; > 100 µM in the assay with NCI/ADR-RES ovarian; 29.4 µM in the assay on HOP-62 NSCLC; 35.4 µM in the assay on SF-539 CNS; 41.3 µM in the assay on U251 CNS; > 100 µM with A498 renal. Moreover, the TGI in the assay with OVCAR-8 ovarian, with KM12 colon, in the assay on HL-60(TB) leukemia, with CCRF-CEM leukemia and in the assay on OVCAR-4 ovarian was > 100 µM each time.
Take `COc1ccc(N[C@H](CS(=O)c2ccc(C)cc2)C(F)(F)C(F)(F)F)cc1` (stereo partly drawn): the TGI with TK-10 renal was > 100 µM; with EKVX NSCLC, > 100 µM; with RXF 393 renal, 32.4 µM; in the assay on HCT-116 colon it was > 100 µM; in the assay on BT-549 breast, > 100 µM; in the assay with MALME-3M melanoma, > 100 µM. For the same molecule, the TGI in the assay with SN12C renal, in the assay on NCI/ADR-RES ovarian, in the assay on HOP-62 NSCLC, in the assay with SF-539 CNS, in the assay with U251 CNS and in the assay on A498 renal was > 100 µM in each case. Also, the TGI with OVCAR-8 ovarian, in the assay on KM12 colon, in the assay with HL-60(TB) leukemia, in the assay on CCRF-CEM leukemia and in the assay with OVCAR-4 ovarian was > 100 µM each time.
Turning to `O=c1cc(-c2ccccc2)oc2ccc(Oc3nnnn3-c3ccccc3)cc12`, the TGI in the assay on TK-10 renal is > 100 µM; in the assay with EKVX NSCLC, > 100 µM; in the assay on RXF 393 renal it was > 76.1 µM; with HCT-116 colon, > 100 µM; in the assay with BT-549 breast, 70.7 µM; in the assay with MALME-3M melanoma, > 100 µM. Besides, the TGI is > 100 µM in the assay on SN12C renal; > 100 µM in the assay with NCI/ADR-RES ovarian; > 82.3 µM in the assay on HOP-62 NSCLC; > 86.8 µM in the assay on SF-539 CNS; > 74.7 µM with U251 CNS; > 100 µM with A498 renal. In addition, the TGI in the assay with OVCAR-8 ovarian, with KM12 colon, in the assay with HL-60(TB) leukemia, in the assay on CCRF-CEM leukemia and with OVCAR-4 ovarian was > 100 µM in each case.
On to `CC1OC(OC2C(O)COC(OC3C(C)OC(OC4C(OC(=O)[C@]56CCC(C)(C)C[C@@H]5C5=CCC7[C@@]8(C)C[C@H](O)[C@H](OC9OC(CO)C(O)C(OC%10OC(CO)C(O)C(O)C%10O)C9O)[C@@](C)(CO)[C@@H]8CC[C@@]7(C)[C@]5(C)CC6)OCC(O)C4O)C(O)C3OC3OCC(O)C(O)C3O)C2O)C(O)C(O)C1O` (stereo partly drawn), for which the TGI with TK-10 renal was determined as 22.7 µM; in the assay with EKVX NSCLC, 15.6 µM; in the assay on RXF 393 renal it was 21.6 µM; in the assay with HCT-116 colon, 23.7 µM; in the assay with BT-549 breast it was 25.8 µM; with MALME-3M melanoma, 29.9 µM. Also, the TGI in the assay on SN12C renal turned out to be 3.87 µM; with NCI/ADR-RES ovarian, 26.4 µM; in the assay on HOP-62 NSCLC, 20.3 µM; in the assay on SF-539 CNS, 32.1 µM; in the assay with U251 CNS, 20.1 µM; with A498 renal, 5 µM. The TGI in the assay with OVCAR-8 ovarian worked out at 29 µM; in the assay with KM12 colon, 33.5 µM; in the assay with HL-60(TB) leukemia, 15 µM; in the assay with CCRF-CEM leukemia, 25.2 µM; with OVCAR-4 ovarian it was 29.8 µM.
As for `O=P1(Oc2ccc(Cl)cc2)OCCS1` (stereo not drawn), the TGI with TK-10 renal, in the assay with EKVX NSCLC, in the assay with RXF 393 renal, in the assay with HCT-116 colon, in the assay on BT-549 breast and in the assay with MALME-3M melanoma was > 100 µM each time. Further, the TGI in the assay on SN12C renal, with NCI/ADR-RES ovarian, in the assay with HOP-62 NSCLC, with SF-539 CNS, in the assay on U251 CNS and in the assay with A498 renal was > 100 µM in each case. The TGI in the assay with OVCAR-8 ovarian, in the assay on HL-60(TB) leukemia and with CCRF-CEM leukemia was > 100 µM in each case.
Take `CCOC(=O)c1cc2c([nH]1)C(=O)CC1=C2CCN1Cc1ccccc1`: the TGI with TK-10 renal was 30 µM; in the assay on EKVX NSCLC it was 37.4 µM; with RXF 393 renal, 30.5 µM; with HCT-116 colon, 25.8 µM; in the assay on BT-549 breast it was 38.3 µM; in the assay with MALME-3M melanoma it was 13.2 µM. Besides, the TGI in the assay on SN12C renal was 35.3 µM; in the assay on NCI/ADR-RES ovarian, 43.5 µM; with SF-539 CNS, 39.4 µM; in the assay with U251 CNS it was 25.4 µM; in the assay on A498 renal it was 29 µM; in the assay with OVCAR-8 ovarian it was 46.6 µM. Also, the TGI in the assay on KM12 colon amounted to 33.2 µM; in the assay on HL-60(TB) leukemia, 54.1 µM; with CCRF-CEM leukemia, 28.6 µM; in the assay on OVCAR-4 ovarian, 26.8 µM.
Turning to `Cc1ccc2[nH]c3[nH]c(=O)[nH]c(=O)c3c2c1`, the TGI in the assay with TK-10 renal, in the assay on EKVX NSCLC, in the assay on RXF 393 renal, in the assay with HCT-116 colon, in the assay on BT-549 breast and with MALME-3M melanoma was > 100 µM each time. The TGI in the assay with SN12C renal, with NCI/ADR-RES ovarian, with HOP-62 NSCLC, in the assay with SF-539 CNS, in the assay on A498 renal and with OVCAR-8 ovarian was > 100 µM in each case. Further, the TGI in the assay on KM12 colon, in the assay on HL-60(TB) leukemia and in the assay with CCRF-CEM leukemia was > 100 µM throughout.
